This is an account of results in ChEMBL document CHEMBL1147344, “New Chlorophyll-A-Related Compounds Isolated as Antioxidants from Marine Bivalves” (J Nat Prod, 1993).

Molecules are shown by their SMILES. Calls of active or inactive are those of the source. The calls are words filed in the database; no cut-off is given here.

The first experiment can be described thus: Antioxidant activity assessed as inhibition of lipid peroxidation at 3 ug incubated at 40 degC in dark by paper disk method. Type of experiment: functional.
As for `C=Cc1c(C)c2cc3nc4c5c6[nH]c(cc7nc(cc1[nH]2)C(C)=C7CC)c(C)c6C(=O)O[C@@]5(O)C(=O)CC[C@H]4[C@@H]3C`, the outcome was Active. Still for that read-out and setting: the same measure for `C=Cc1c(C)c2cc3nc(c4c5[nH]c(cc6nc(cc1[nH]2)C(C)=C6CC)c(C)c5C(=O)C4)[C@@H](CCC(=O)O)[C@@H]3C`: “Active”.

`C=Cc1c(C)c2cc3nc(c4c5[nH]c(cc6nc(cc1[nH]2)C(C)=C6CC)c(C)c5C(=O)C4=O)[C@@H](CCC(=O)O)[C@@H]3C`: the outcome was Active. As to `C=Cc1c(C)c2cc3nc(c4c5[nH]c(cc6nc(cc1[nH]2)C(C)=C6CC)c(C)c5C(=O)OC4=O)[C@@H](CCC(=O)OC)[C@@H]3C`, the outcome was Active.

Take `C=Cc1c(C)c2cc3nc(c4c5[nH]c(cc6nc(cc1[nH]2)C(C)=C6CC)c(C)c5C(=O)OC4=O)[C@@H](CCC(=O)O)[C@@H]3C`: the outcome was Active. The same measure, in the same setting: next, `C=Cc1c(C)c2cc3nc4c(c5[nH]c(cc6nc(cc1[nH]2)C(C)=C6CC)c(C)c5C(=O)OC)C(=O)C(=O)CC[C@H]4[C@@H]3C`: “Active”; `C=Cc1c(C)c2cc3nc4c5c6[nH]c(cc7nc(cc1[nH]2)C(C)=C7CC)c(C)c6C(=O)[C@@]5(O)C(=O)CC[C@H]4[C@@H]3C`: “Active”.

Another experiment can be described thus: Antioxidant activity assessed as inhibition of lipid peroxidation at 20 ug incubated at 40 degC in dark by paper disk method. Type of experiment: functional.
For the compound `Cc1c(C)c2c(c(C)c1O)CC[C@@](C)(CCC[C@H](C)CCC[C@H](C)CCCC(C)C)O2`, the outcome was Active.

Another experiment can be described thus: Antioxidant activity assessed as inhibition of lipid peroxidation in dark at 40 degC by paper disk method. It counts as functional.
Turning to `C=Cc1c(C)c2cc3nc4c5c6[nH]c(cc7nc(cc1[nH]2)C(C)=C7CC)c(C)c6C(=O)[C@]5(O)C(=O)CC[C@H]4[C@@H]3C`, the outcome was Active.
